Laboratory results from patent US20150274719A1, “AMINO-SUBSTITUTED IMIDAZO[1,2-A]PYRIDINECARBOXAMIDES AND THEIR USE” (BAYER PHARMA AKTIENGESELLSCHAFT, priority 2012, published 2015).

Biological target: T1, recombinant guanylate cyclase reporter cell line (Rattus norvegicus, UniProt P19686+P20595)
T1 construct: expressed in transfected cells; host or cells: recombinant reporter cell line
T1 sequence (P19686 1-690): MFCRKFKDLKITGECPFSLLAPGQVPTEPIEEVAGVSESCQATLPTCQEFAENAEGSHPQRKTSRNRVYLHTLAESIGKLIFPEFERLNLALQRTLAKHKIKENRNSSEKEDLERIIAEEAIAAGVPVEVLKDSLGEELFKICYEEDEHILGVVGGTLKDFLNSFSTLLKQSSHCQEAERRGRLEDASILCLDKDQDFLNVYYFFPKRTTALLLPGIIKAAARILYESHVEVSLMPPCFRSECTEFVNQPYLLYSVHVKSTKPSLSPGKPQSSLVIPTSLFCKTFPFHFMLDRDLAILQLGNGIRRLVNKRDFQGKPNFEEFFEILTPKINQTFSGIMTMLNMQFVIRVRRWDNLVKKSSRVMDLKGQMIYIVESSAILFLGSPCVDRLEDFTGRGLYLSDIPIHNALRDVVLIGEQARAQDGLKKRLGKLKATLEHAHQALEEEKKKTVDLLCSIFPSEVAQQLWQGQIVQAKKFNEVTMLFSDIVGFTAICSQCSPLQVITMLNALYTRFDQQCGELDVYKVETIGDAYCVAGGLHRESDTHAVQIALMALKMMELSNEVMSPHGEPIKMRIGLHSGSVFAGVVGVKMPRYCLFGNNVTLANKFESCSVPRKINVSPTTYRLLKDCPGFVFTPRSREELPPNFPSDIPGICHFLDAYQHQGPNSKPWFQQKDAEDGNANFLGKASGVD
T1 sequence (P20595 1-619): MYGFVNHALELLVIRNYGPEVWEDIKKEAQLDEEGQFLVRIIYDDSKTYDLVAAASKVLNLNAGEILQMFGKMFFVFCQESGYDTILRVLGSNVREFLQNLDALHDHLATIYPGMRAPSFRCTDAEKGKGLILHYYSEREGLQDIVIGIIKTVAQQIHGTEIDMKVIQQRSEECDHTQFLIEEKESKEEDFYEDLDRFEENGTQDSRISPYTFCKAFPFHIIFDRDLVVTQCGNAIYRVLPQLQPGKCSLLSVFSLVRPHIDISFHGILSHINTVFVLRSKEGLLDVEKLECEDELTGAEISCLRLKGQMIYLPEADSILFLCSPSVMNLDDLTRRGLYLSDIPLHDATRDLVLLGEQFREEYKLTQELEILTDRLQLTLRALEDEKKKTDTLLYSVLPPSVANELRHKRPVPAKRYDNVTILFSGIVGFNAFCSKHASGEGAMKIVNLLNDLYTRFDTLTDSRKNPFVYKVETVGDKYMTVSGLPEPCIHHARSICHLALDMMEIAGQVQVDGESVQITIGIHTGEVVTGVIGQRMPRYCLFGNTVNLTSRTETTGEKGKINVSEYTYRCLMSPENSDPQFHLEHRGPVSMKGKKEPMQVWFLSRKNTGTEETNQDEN
Test: Action on recombinant guanylate cyclase reporter cell line
Type: cell-based
Details: in some cases mean values from individual determinations
Method in brief: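 MEC values, meaning the lowest concentration producing a detectable response, were taken from a recombinant cyclase reporter cell assay. Where repeated, individual determinations were averaged.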

Row | MEC (minimal effective concentration) [µM] | SMILES
1 | 0.10 | CCCC(C)(N)CNC(=O)c1c(CC)nc2c(OCc3c(F)cccc3F)cc(C)cn12 (racemic) [Example 301, rac-N-(2-amino-2-methylpentyl)-8-[(2,6-difluorobenzyl)oxy]-2-ethyl-6-methylimidazo[1,2-a]pyridine-3-carboxamide]
2 | 0.10 | Cc1cc(OCc2c(F)cccc2F)c2nc(C)c(C(=O)NC3CCNC(C(F)(F)F)C3)n2c1 (racemic) [Example 302, rac-8-[(2,6-difluorobenzyl)oxy]-2,6-dimethyl-N-[2-(trifluoromethyl)piperidin-4-yl]imidazo[1,2-a]pyridine-3-carboxamide]
3 | 0.30 | Cc1cc(OCc2c(F)cccc2F)c2nc(C)c(C(=O)NCC(C)(N)Cc3nc4ccccc4s3)n2c1 (racemic) [Example 310, rac-N-[2-amino-3-(1,3-benzothiazol-2-yl)-2-methylpropyl]-8-[(2,6-difluorobenzyl)oxy]-2,6-dimethylimidazo[1,2-a]pyridine-3-carboxamide]
4 | 0.30 | CCCC(C)(N)CNC(=O)c1c(C)nc2c(OCc3c(F)c(F)cc(F)c3F)cc(C)cn12 (racemic) [Example 311, rac-N-(2-amino-2-methylpentyl)-2,6-dimethyl-8-[(2,3,5,6-tetrafluorobenzyl)oxy]imidazo[1,2-a]pyridine-3-carboxamide]
5 | 0.30 | Cc1cc(OCc2c(F)cccc2F)c2nc(C)c(C(=O)NC3CNCC(F)(F)C3)n2c1 (racemic) [Example 312, rac-8-[(2,6-difluorobenzyl)oxy]-N-(5,5-difluoropiperidin-3-yl)-2,6-dimethylimidazo[1,2-a]pyridine-3-carboxamide]
6 | 0.30 | Cc1cc(OCc2c(F)cccc2F)c2nc(C)c(C(=O)NC3CCCCNC3)n2c1 (racemic) [Example 316, rac-N-(azepan-3-yl)-8-[(2,6-difluorobenzyl)oxy]-2,6-dimethylimidazo[1,2-a]pyridine-3-carboxamide]
7 | 0.30 | CCCC(C)(N)CNC(=O)c1c(C)nc2c(OCc3cccc(C)c3F)cc(C)cn12 (racemic) [Example 317, rac-N-(2-amino-2-methylpentyl)-8-[(2-fluoro-3-methylbenzyl)oxy]-2,6-dimethylimidazo[1,2-a]pyridine-3-carboxamide]
8 | 0.30 | Cc1cc(OCc2c(F)cccc2F)c2nc(C)c(C(=O)NC3(C)CC3(C)N)n2c1 (racemic) [Example 320, rac-N-(2-amino-1,2-dimethylcyclopropyl)-8-[(2,6-difluorobenzyl)oxy]-2,6-dimethylimidazo[1,2-a]pyridine-3-carboxamide (racemate)]
9 | 0.30 | Cc1cc(OCc2c(F)cccc2F)c2nc(C)c(C(=O)NCC(C)(N)Cc3ncn(-c4cc(C)on4)n3)n2c1 (racemic) [Example 321, rac-N-{2-amino-2-methyl-3-[1-(5-methyl-1,2-oxazol-3-yl)-1H-1,2,4-triazol-3-yl]propyl}-8-[(2,6-difluorobenzyl)oxy]-2,6-dimethylimidazo[1,2-a]pyridine-3-carboxamide]
10 | 0.30 | Cc1cc(OCc2c(F)cccc2F)c2nc(C)c(C(=O)NC3CC3N)n2c1 (racemic) [Example 330, rac-N-(2-aminocyclopropyl)-8-[(2,6-difluorobenzyl)oxy]-2,6-dimethylimidazo[1,2-a]pyridine-3-carboxamide]
11 | 0.30 | Cc1cc(OCc2c(F)cccc2F)c2nc(C)c(C(=O)NC3CCC3(C)N)n2c1 (racemic) [Example 331, rac-N-(2-amino-2-methylcyclobutyl)-8-[(2,6-difluorobenzyl)oxy]-2,6-dimethylimidazo[1,2-a]pyridine-3-carboxamide]
12 | 0.30 | Cc1cc(OCc2c(F)cccc2F)c2nc(C)c(C(=O)NC3(C)CCC3(C)N)n2c1 (racemic) [Example 335, rac-N-[2-amino-1,2-dimethylcyclobutyl]-8-[(2,6-difluorobenzyl)oxy]-2,6-dimethylimidazo[1,2-a]pyridine-3-carboxamide]
